From ChEMBL document CHEMBL3396968, “Isolation and cytotoxicity evaluation of taxanes from the barks of Taxus wallichiana var. mairei” (Bioorg Med Chem Lett, 2015)

Assays:
A549 = assay: Antiproliferative activity against human A549 cells assessed as growth inhibition after 48 hrs by sulforhodamine B assay; assay type: functional, cell-based; conditions: A549, 48 h
SW480 = assay: Antiproliferative activity against human SW480 cells assessed as growth inhibition after 48 hrs by sulforhodamine B assay; assay type: functional, cell-based; conditions: SW480, 48 h
MCF7 = assay: Antiproliferative activity against human MCF7 cells assessed as growth inhibition after 48 hrs by sulforhodamine B assay; assay type: functional, cell-based; conditions: MCF7, 48 h
HepG2 = assay: Antiproliferative activity against human HepG2 cells assessed as growth inhibition after 48 hrs by sulforhodamine B assay; assay type: functional, cell-based; conditions: HepG2, 48 h
A2780 = assay: Antiproliferative activity against human A2780 cells assessed as growth inhibition after 48 hrs by sulforhodamine B assay; assay type: functional, cell-based; conditions: A2780, 48 h
[1] = Antiproliferative activity against human A2780/TAX cells assessed as growth inhibition after 48 hrs by sulforhodamine B assay; assay type: functional, cell-based
[2] = Antiproliferative activity against human HCT8 cells assessed as growth inhibition after 48 hrs by sulforhodamine B assay; assay type: functional, cell-based; conditions: HCT-8, 48 h
[3] = Antiproliferative activity against human HCT8/VCT cells assessed as growth inhibition after 48 hrs by sulforhodamine B assay; assay type: functional, cell-based
[4] = Antiproliferative activity against human A549/CDDP cells assessed as growth inhibition after 48 hrs by sulforhodamine B assay; assay type: functional, cell-based; conditions: A549, 48 h
[5] = Antiproliferative activity against human MCF7/DX cells assessed as growth inhibition after 48 hrs by sulforhodamine B assay; assay type: functional, cell-based
[6] = Antiproliferative activity against mouse NIH/3T3 cells assessed as growth inhibition after 48 hrs by sulforhodamine B assay; assay type: cell-based; conditions: NIH3T3, 48 h

SMILES	IC50 (A549)	IC50 (SW480)	IC50 (MCF7)	IC50 (HepG2)	IC50 (A2780)	IC50 [1]	IC50 [2]	IC50 [3]	IC50 [4]	IC50 [5]	IC50 [6]
CC(=O)O[C@@]12CO[C@@H]1C[C@H](O[C@@H]1OC[C@@H](O)[C@H](O)[C@H]1O)[C@@]1(C)C(=O)[C@H](O)C3=C(C)[C@@H](OC(=O)[C@H](O)[C@@H](NC(=O)c4ccccc4)c4ccccc4)C[C@@](O)([C@@H](OC(=O)c4ccccc4)[C@H]21)C3(C)C	2.1 µM	16 µM	0.8 µM	3 µM	1.6 µM	> 25 µM	0.26 µM	> 25 µM	2.5 µM	1.4 µM	> 25 µM
C=C1[C@@H](O)C[C@H](OC(C)=O)[C@@]2(COC(=O)c3ccccc3)[C@@H](OC(C)=O)[C@H](OC(C)=O)[C@@]3(O)[C@]4(C)OC[C@]3(C)C(CC4=O)[C@@H](OC(C)=O)[C@H]12 [TAXININE M]	12 µM	16 µM	> 25 µM	> 25 µM	> 25 µM	> 25 µM	> 25 µM	> 25 µM	> 25 µM	> 25 µM	> 25 µM
C/C=C(\C)C(=O)N[C@@H](c1ccccc1)[C@@H](O)C(=O)O[C@H]1C[C@@]2(O)[C@@H](OC(=O)c3ccccc3)[C@@H]3[C@]4(OC(C)=O)CO[C@@H]4C[C@H](O[C@@H]4OC[C@@H](O)[C@H](O)[C@H]4O)[C@@]3(C)C(=O)[C@H](OC(C)=O)C(=C1C)C2(C)C	2.2 µM	7.2 µM	0.029 µM	5.8 µM	> 25 µM	17 µM	> 25 µM	> 25 µM	> 25 µM	> 25 µM	> 25 µM
CC(=O)O[C@@]12CO[C@@H]1C[C@@H](O)[C@@]1(C)C(=O)[C@H](O)C3=C(C)[C@@H](OC(=O)[C@H](O)[C@@H](NC(=O)c4ccccc4)c4ccccc4)C[C@@](O)([C@@H](OC(=O)c4ccccc4)[C@H]21)C3(C)C	0.011 µM	0.059 µM	0.012 µM	0.095 µM	0.03 µM	7.2 µM	13 µM	11 µM	0.024 µM	> 25 µM	2.2 µM
C=C1[C@@H](OC(=O)/C=C/c2ccccc2)C[C@H](OC(C)=O)[C@]2(C)[C@@H]1C[C@@H]1C[C@H](OC(C)=O)C(C)=C([C@@H](OC(C)=O)[C@@H]2OC(C)=O)C1(C)C	9.4 µM	> 25 µM	> 25 µM	> 25 µM	9.7 µM	> 25 µM	11 µM	12 µM	7.1 µM	> 25 µM	15 µM
CC(=O)O[C@H]1C(=O)[C@@]2(C)[C@H]([C@H](OC(=O)c3ccccc3)[C@]3(O)C[C@H](OC(=O)[C@H](O)[C@@H](NC(=O)OC(C)(C)C)c4ccccc4)C(C)=C1C3(C)C)[C@]1(OC(C)=O)CO[C@@H]1C[C@@H]2O	< 0.002 µM		< 0.002 µM		< 0.002 µM	0.42 µM	< 0.002 µM	0.89 µM	< 0.002 µM	< 0.002 µM	< 0.002 µM
C/C=C(\C)C(=O)N[C@@H](c1ccccc1)[C@@H](O)C(=O)O[C@H]1C[C@@]2(O)[C@@H](OC(=O)c3ccccc3)[C@@H]3[C@]4(OC(C)=O)CO[C@@H]4C[C@H](O)[C@@]3(C)C(=O)[C@H](OC(C)=O)C(=C1C)C2(C)C [CEPHALOMANNINE]	0.008 µM	0.033 µM	0.004 µM	0.02 µM	0.013 µM	4.9 µM	> 25 µM	7.2 µM	0.005 µM	7 µM	0.6 µM
C/C=C(\C)C(=O)N[C@@H](c1ccccc1)[C@@H](O)C(=O)O[C@H]1C[C@@]2(O)[C@@H](OC(=O)c3ccccc3)[C@@H]3[C@]4(OC(C)=O)CO[C@@H]4C[C@H](O[C@@H]4OC[C@@H](O)[C@H](O)[C@H]4O)[C@@]3(C)C(=O)[C@H](O)C(=C1C)C2(C)C	1.9 µM	20 µM	0.14 µM	3.9 µM	3.5 µM	> 25 µM	> 25 µM	> 25 µM	3.1 µM	> 25 µM	> 25 µM
CC(=O)O[C@@]12CO[C@@H]1C[C@H](O)[C@@]1(C)C(=O)[C@H](O)C3=C(C)[C@@H](O)C[C@@](O)([C@@H](OC(=O)c4ccccc4)[C@H]21)C3(C)C	21 µM		17 µM		> 25 µM	16 µM	> 25 µM	> 25 µM	25 µM	> 25 µM	> 25 µM
C=C1[C@@H](O[C@@H]2O[C@H](CO)[C@@H](O)[C@H](O)[C@H]2O)C[C@H](OC(C)=O)[C@]2(C)[C@@H]1C[C@@H]1C[C@H](O)C(C)=C([C@@H](OC(C)=O)[C@@H]2OC(C)=O)C1(C)C	2.2 µM	16 µM	> 25 µM	6.1 µM	> 25 µM	> 25 µM	> 25 µM	> 25 µM	> 25 µM	> 25 µM	> 25 µM
CC(=O)O[C@H]1C(=O)[C@@]2(C)[C@H]([C@H](OC(=O)c3ccccc3)[C@]3(O)C[C@H](O)C(C)=C1C3(C)C)[C@]1(OC(C)=O)CO[C@@H]1C[C@@H]2O [BACCATIN III]	> 25 µM		7.4 µM		> 25 µM	> 25 µM	12 µM	> 25 µM	24 µM	> 25 µM	> 25 µM
C=C1[C@@H](OC(=O)C[C@H](c2ccccc2)N(C)C)C[C@H](OC(C)=O)[C@]2(C)[C@@H]1C[C@@H]1C[C@H](OC(C)=O)C(C)=C([C@@H](OC(C)=O)[C@@H]2OC(C)=O)C1(C)C	12 µM	> 25 µM	0.04 µM	15 µM	5.1 µM	> 25 µM	> 25 µM	> 25 µM	14 µM	> 25 µM	10 µM
CC(=O)O[C@H]1C(=O)[C@]2(C)[C@@H](O[C@@H]3OC[C@@H](O)[C@H](O)[C@H]3O)C[C@H]3OC[C@@]3(OC(C)=O)[C@H]2[C@H](OC(=O)c2ccccc2)[C@]2(O)C[C@H](OC(=O)[C@H](O)[C@@H](NC(=O)c3ccccc3)c3ccccc3)C(C)=C1C2(C)C	0.39 µM	5.6 µM	0.16 µM	1.2 µM	0.85 µM	> 25 µM	5.9 µM	> 25 µM	0.92 µM	> 25 µM	> 25 µM
CC(=O)O[C@H]1C(=O)[C@@]2(C)[C@H]([C@H](OC(=O)c3ccccc3)[C@]3(O)C[C@H](OC(=O)[C@H](O)[C@@H](NC(=O)c4ccccc4)c4ccccc4)C(C)=C1C3(C)C)[C@]1(OC(C)=O)CO[C@@H]1C[C@@H]2O [PACLITAXEL]		0.021 µM		0.009 µM		4.4 µM	0.066 µM			6.2 µM	0.58 µM
CCCCCC(=O)N[C@@H](c1ccccc1)[C@@H](O)C(=O)O[C@H]1C[C@@]2(O)[C@@H](OC(=O)c3ccccc3)[C@@H]3[C@]4(OC(C)=O)CO[C@@H]4C[C@H](O[C@@H]4OC[C@@H](O)[C@H](O)[C@H]4O)[C@@]3(C)C(=O)[C@H](O)C(=C1C)C2(C)C	19 µM	> 25 µM	> 25 µM	> 25 µM	1.5 µM	> 25 µM	8.5 µM	> 25 µM	0.64 µM	> 25 µM	> 25 µM
